In patent US6723702B2, “Use of relaxin treat diseases related to vasoconstriction” (RAS Medical, Inc., priority 2000, dated 2004):

Assays:
[1] = tested on: conscious rats; assay: Acute infusion of L-NAME during chronic infusion of purified porcine RLX; type: in vivo, rat
Description: At least 7 days after the implantation of vascular and bladder catheters, osmotic minipumps containing either porcine RLX (4 μg/hour) or vehicle (Ringer's solution) were implanted in intact, female rats (n=7 and 6 rats, respectively). Renal function and MAP were measured on day 5 of relaxin infusion (three 30-minute urine and midpoint blood collections). Next, an infusion of L-NAME (2 μg/minute, a substrate competitive inhibitor of NO synthase) was administered intravenously (i.v.) by infusion pump (Model 200, KD Scientific, Boston, Mass.). Four 1-hour urine collections with midpoint blood samples were collected for the assessment of GFR, ERPF, and ERVR during the L-NAME administration. Identical procedures were performed on additional animals chronically administered porcine RLX (n=5) or vehicle (n=5), except that ANG II (3 ng/minute) was infused rather than L-NAME. Finally, another four, age-matched control rats were administered Ringer's solution instead of either L-NAME or ANG II on day 5 of porcine RLX infusion.
MAP, GFR, ERPF, and ERVR were measured at time zero (baseline), and at 60, 120, 180, and 240 minutes after administering L-NAME and either RLX or vehicle alone. Values represent the mean±SEM. L-NAME (Nω-nitro-L-arginine methyl ester) was infused at 2 μg/minute intravenously, and relaxin was administered at 4 μg/hour by osmotic minipump subcutaneously. There were 7 and 6 rats, respectively, in the RLX and vehicle groups. An asterisk denotes p<0.05; the symbol H denotes p<0.05 for RLX vs. vehicle.

[2] = tested on: db/db mice; assay: Full thickness wound healing in db/db mice; type: in vivo, mouse; conditions: PDGF 5 μg/wound/day for 5 days
Description: To determine whether rhRlx would improve healing in this model of impaired healing, standardized full thickness (1.5 cm×1.5 cm) wounds were made on the back of db/db mice (Jackson Laboratories, Bar Harbor, Me.). Mice were treated continuously for 21 days with rhRlx via a subcutaneously implanted Alzet pump at a dose of either 0.1 mg/kg/day or 0.2 mg/kg/day. Wound areas were measured in the course of the study. Healing is presented as wound area on day 14 relative to the original size of the wound on day 0 and is calculated as: % of original wound area=[Area on day 14/area on day 0]×100. […] Wound closure was expressed as “% of original wound area.” There were 8-20 animals per group. Wound closure was 91.4% in control group vs. 64% in the relaxin-treated group (p<0.05 by Student-Newman-Kuels test). The differences in the extent of wound healing were small among vehicle control and low dose of rhRlx treatment as well as PDGF (5 μg/wound/day for 5 days) treated mice.
At day 21-post surgery, the wounds were also excised and fixed in formalin prior to paraffin embedding. Sections from the middle of the wound were stained with Masson's trichrome and evaluated by two investigators. […] Inflammatory cell accumulation was present at the wound edges.
Neovascularization is a key component of granulation tissue formation. New blood vessel formation is stimulated by a variety of growth factors including bFGF, and VEGF. […] Immunohistochemical staining of the midsection of full thickness wounds using polyclonal antibody to von Willebrand factor VIII-related antigen was used to identify new blood vessels in the wounds.

[3] = tested on: Rat aortic adventitial fibroblasts; assay: Collagen and fibronectin expression by adventitial fibroblasts; type: cell-based
Description: Aortic adventitial fibroblasts from normal adult Sprague/Dawley rats were explanted by carefully dissecting the adventitia away from the media and culturing 1 mm^3 pieces in Dulbecco's modified Eagles Medium (DMEM), plus 10% bovine fetal calf serum. When cultures were confluent, fibroblasts were dispersed with trypsin and passaged once prior to use in experiments. Fibroblasts were seeded at 10^5 cells/cm^2 in DMEM+10% FBS in 48-well plates for experiments and assayed for collagen and fibronectin expression, as previously described (Unemori et al. (1996) J. Clin. Invest. 98:2739-2745). […] Half of the cultures were also treated simultaneously with 10 ng/ml of rhRlx. Proteins were biosynthetically labeled with ^3H-proline (25 μCi/ml) (Amersham Corp., Arlington Heights, Ill.), in the presence of ascorbate (50 μg/ml) and β-aminopropionitrile (80 μg/ml), and conditioned media collected 24 hours later. Media were electrophoresed on SDS-PAGE, and the density of collagen and fibronectin bands was determined by densitometric scanning using a digital imaging system (Alpha Innotech Corp, San Leandro, Calif.).

For COC(=O)[C@@H](N)CCCNC(=N)N[N+](=O)[O-] [L-NAME, Nω-nitro-L-arginine methyl ester, reference compound], the “renal vasodilation and hyperfiltration in the relaxin-treated rats” value ([1]; day 5 of porcine RLX infusion, L-NAME 2 μg/minute i.v.) was “completely abrogated” and the “rise in MAP and ERVR, and reduction in GFR and ERPF” value ([1]; relaxin-treated compared to vehicle infused rats) was “significantly greater”.
PDGF [reference compound] was tested, and the “differences in the extent of wound healing vs vehicle control” value [2] was “small”.
For TGF-β [reference compound], the “expression of collagens, of control levels” value ([3]; TGF-β (20 ng/ml)) was 484±67% and the “Fibronectin expression, of control levels” value ([3]; TGF-β treatment) was 360±5%.
